{"source": "patent US6998423B2", "about": "“Prevention of loss and restoration of bone mass by certain prostaglandin agonists” (priority 1996, dated 2006)", "tested_on": "Bone Morphogenetic Protein 7 (BMP-7) expression in EP2 293S cells", "test": "Induction of BMP-7 expression (Northern blot) in 293S cells transfected with the EP2 receptor", "assay_type": "cell-based, human", "conditions": "10^−6M, RNA extracted at 8, 16 and 24 hours, Northern blot with 32P-labeled BMP-7 probe", "procedure": "Methods: 293S and EP2 293S cells were grown in Dulbecco's Modified Egale medium (DMEM, Gibco, BRL; Gaithersburg, Md.). One day prior to treatment with PGE2or a prostaglandin agonist, cells were plated at a density of 1.5×10^6 cells /10 cm dish. […] Cells were harvested and RNA extracted at 8, 16 and 24 hours. Northern blot analysis of total ([…] ) was carried out by probing the blots with ^32P-labeled BMP-7 probe. The blots were normalized for RNA loading by hybridization with ^32P-labeled 18s ribosomal RNA probe. […] Given the known role of BMP-7 in kidney regeneration and the ability of a prostaglandin agonist to induce BMP-7 expression in 293S kidney cells in a time and receptor specific manner indicates a role for a prostaglandin agonist in kidney regeneration."}
{"smiles": "CCCCC[C@H](O)/C=C/[C@H]1[C@H](O)CC(=O)[C@@H]1C/C=C\\CCCC(=O)O", "note": "[PGE2, prostaglandin E2]", "values": [{"measurement": "induction of the expression of BMP-7", "result": "in a time dependent manner induce the expression of BMP-7"}]}
